Measured values from ChEMBL document CHEMBL1671642 (2009).
≈ marks a conversion by molar mass, not a printed value.

Key:
Assay type in all cases: functional
Escherichia coli [1] = test: Ratio of MIC for Escherichia coli K-12 3-AG300 harboring acrB::rpsLneo mutant gene to MIC for Escherichia coli K-12 3-AG300
Escherichia coli [2] = test: Antimicrobial activity against Escherichia coli K-12 3-AG300 harboring AcrB-F628F mutant gene
Escherichia coli [3] = test: Antimicrobial activity against Escherichia coli K-12 3-AG300 harboring AcrB-615-628MexB mutant gene
Escherichia coli [4] = test: Antimicrobial activity against Escherichia coli K-12 3-AG300 harboring acrB::rpsLneo mutant gene
Escherichia coli [5] = test: Antimicrobial activity against Escherichia coli K-12 3-AG300 harboring AcrB-G616N mutant gene
Escherichia coli [6] = test: Ratio of MIC for Escherichia coli K-12 3-AG300 harboring AcrB-615-628MexB-M626I mutant gene to MIC for Escherichia coli K-12 3-AG300
Escherichia coli [7] = test: Antimicrobial activity against Escherichia coli K-12 3-AG300 harboring AcrB-615-628MexB-S623N mutant gene
Escherichia coli [8] = test: Ratio of MIC for Escherichia coli K-12 3-AG300 harboring AcrB-G616N mutant gene to MIC for Escherichia coli K-12 3-AG300
Escherichia coli [9] = test: Antimicrobial activity against Escherichia coli K-12 3-AG300 harboring AcrB-I626M mutant gene
Escherichia coli [10] = test: Ratio of MIC for Escherichia coli K-12 3-AG300 harboring AcrB-615-628MexB mutant gene to MIC for Escherichia coli K-12 3-AG300
Escherichia coli [11] = test: Antimicrobial activity against Escherichia coli K-12 3-AG300 harboring AcrB-615-628MexB-N616 mutant gene
Escherichia coli [12] = test: Antimicrobial activity against Escherichia coli K-12 3-AG300 harboring AcrB-615-628MexB-M626I mutant gene
Escherichia coli [13] = test: Antimicrobial activity against Escherichia coli K-12 3-AG300 harboring AcrB-N623S-Q624S mutant gene

SMILES	Ratio (Escherichia coli [1])	MIC (Escherichia coli [2]) [µg/mL]	MIC (Escherichia coli [3]) [µg/mL]	MIC (Escherichia coli [4]) [µg/mL]	MIC (Escherichia coli [5]) [µg/mL]	Ratio (Escherichia coli [6])	MIC (Escherichia coli [7]) [µg/mL]	Ratio (Escherichia coli [8])	MIC (Escherichia coli [9]) [µg/mL]	Ratio (Escherichia coli [10])	MIC (Escherichia coli [11]) [µg/mL]	MIC (Escherichia coli [12]) [µg/mL]	MIC (Escherichia coli [13]) [µg/mL]
CCOc1ccc(-c2nc3cc(-c4nc5cc(N6CCN(C)CC6)ccc5[nH]4)ccc3[nH]2)cc1	4	4 (≈ 8.84 µM)	4 (≈ 8.84 µM)	0.125 (≈ 0.276 µM)									
CC[C@H]1OC(=O)[C@H](C)[C@@H](O[C@H]2C[C@@](C)(OC)[C@@H](O)[C@H](C)O2)[C@H](C)[C@@H](O[C@@H]2O[C@H](C)C[C@H](N(C)C)[C@H]2O)[C@](C)(O)C[C@@H](C)CN(C)[C@H](C)[C@@H](O)[C@]1(C)O [AZITHROMYCIN]	4	64 (≈ 85.4 µM)	16 (≈ 21.4 µM)	0.5 (≈ 0.668 µM)	16 (≈ 21.4 µM)	4	16 (≈ 21.4 µM)	4	32 (≈ 42.7 µM)	4	64 (≈ 85.4 µM)	8 (≈ 10.7 µM)	
CCBr [BROMOETHANE]	4	512 (≈ 4700 µM)	512 (≈ 4700 µM)	16 (≈ 147 µM)	1020 (≈ 9400 µM)		512 (≈ 4700 µM)		1020 (≈ 9400 µM)		512 (≈ 4700 µM)	512 (≈ 4700 µM)	1020 (≈ 9400 µM)
O=C(N[C@H](CO)[C@H](O)c1ccc([N+](=O)[O-])cc1)C(Cl)Cl [CHLORAMPHENICOL]		8 (≈ 24.8 µM)		1 (≈ 3.09 µM)	8 (≈ 24.8 µM)				8 (≈ 24.8 µM)		8 (≈ 24.8 µM)	8 (≈ 24.8 µM)	8 (≈ 24.8 µM)
CC[C@H]1OC(=O)[C@H](C)[C@@H](O[C@H]2C[C@@](C)(OC)[C@@H](O)[C@H](C)O2)[C@H](C)[C@@H](O[C@@H]2O[C@H](C)C[C@H](N(C)C)[C@H]2O)[C@](C)(OC)C[C@@H](C)C(=O)[C@H](C)[C@@H](O)[C@]1(C)O [CLARITHROMYCIN]	4	512 (≈ 685 µM)	64 (≈ 85.6 µM)	4 (≈ 5.35 µM)	128 (≈ 171 µM)	4	128 (≈ 171 µM)	4	512 (≈ 685 µM)	4	512 (≈ 685 µM)	64 (≈ 85.6 µM)	512 (≈ 685 µM)
CCC[C@@H]1C[C@@H](C(=O)N[C@@H]([C@H]2O[C@H](SC)[C@H](O)[C@@H](O)[C@H]2O)[C@H](C)Cl)N(C)C1 [CLINDAMYCIN]	4	256 (≈ 602 µM)	256 (≈ 602 µM)	4 (≈ 9.41 µM)									
CC[C@H]1OC(=O)[C@H](C)[C@@H](O[C@H]2C[C@@](C)(OC)[C@@H](O)[C@H](C)O2)[C@H](C)[C@@H](O[C@@H]2O[C@H](C)C[C@H](N(C)C)[C@H]2O)[C@](C)(O)C[C@@H](C)C(=O)[C@H](C)[C@@H](O)[C@]1(C)O [ERYTHROMYCIN]	4	512 (≈ 698 µM)	128 (≈ 174 µM)	4 (≈ 5.45 µM)	128 (≈ 174 µM)	4	256 (≈ 349 µM)	4	512 (≈ 698 µM)	4	256 (≈ 349 µM)	128 (≈ 174 µM)	
CC(=O)NC[C@H]1CN(c2ccc(N3CCOCC3)c(F)c2)C(=O)O1 [LINEZOLID]	4	512 (≈ 1520 µM)	1020 (≈ 3040 µM)	16 (≈ 47.4 µM)	512 (≈ 1520 µM)		1020 (≈ 3040 µM)		512 (≈ 1520 µM)		1020 (≈ 3040 µM)	1020 (≈ 3040 µM)	512 (≈ 1520 µM)
CN(C)c1ccc(O)c2c1C[C@H]1C[C@H]3[C@H](N(C)C)C(O)=C(C(N)=O)C(=O)[C@@]3(O)C(O)=C1C2=O [MINOCYCLINE]	4	4 (≈ 8.74 µM)	2 (≈ 4.37 µM)	0.125 (≈ 0.273 µM)	4 (≈ 8.74 µM)		2 (≈ 4.37 µM)		4 (≈ 8.74 µM)		2 (≈ 4.37 µM)	4 (≈ 8.74 µM)	4 (≈ 8.74 µM)
CO[C@@H]1[C@@H](OC(N)=O)[C@@H](O)[C@H](Oc2ccc3c(O)c(NC(=O)c4ccc(O)c(CC=C(C)C)c4)c(=O)oc3c2C)OC1(C)C [NOVOBIOCIN]	4	512 (≈ 836 µM)	512 (≈ 836 µM)	4 (≈ 6.53 µM)	512 (≈ 836 µM)		1020 (≈ 1670 µM)		512 (≈ 836 µM)		512 (≈ 836 µM)	512 (≈ 836 µM)	512 (≈ 836 µM)
Cc1onc(-c2ccccc2)c1C(=O)N[C@@H]1C(=O)N2[C@@H]1SC(C)(C)[C@@H]2C(=O)O [OXACILLIN]	4	512 (≈ 1280 µM)	256 (≈ 638 µM)	0.5 (≈ 1.25 µM)	256 (≈ 638 µM)		512 (≈ 1280 µM)		512 (≈ 1280 µM)		256 (≈ 638 µM)	256 (≈ 638 µM)	256 (≈ 638 µM)
